# Reference: patent EP4786467A1, “QUINOLINONE COMPOUND, PREPARATION METHOD THEREFOR AND USE THEREOF” (Vigonvita Life Sciences Co., Ltd., priority 2023, dated 2025)
# Key:
# [1] = target: T1, recombinant human 5-HT1A receptor (Homo sapiens, UniProt P08908); test: 5-HT1A Receptor Agonist Activity Assay (LANCE cAMP, inhibition of cAMP production); type: cell-based; conditions: CHO-K1 cells expressing the recombinant human 5-HT1A receptor, read-out: 5-HT1A agonistic activity (EC50)
# T1 construct: expressed in transfected cells
# T1 sequence (P08908 1-422): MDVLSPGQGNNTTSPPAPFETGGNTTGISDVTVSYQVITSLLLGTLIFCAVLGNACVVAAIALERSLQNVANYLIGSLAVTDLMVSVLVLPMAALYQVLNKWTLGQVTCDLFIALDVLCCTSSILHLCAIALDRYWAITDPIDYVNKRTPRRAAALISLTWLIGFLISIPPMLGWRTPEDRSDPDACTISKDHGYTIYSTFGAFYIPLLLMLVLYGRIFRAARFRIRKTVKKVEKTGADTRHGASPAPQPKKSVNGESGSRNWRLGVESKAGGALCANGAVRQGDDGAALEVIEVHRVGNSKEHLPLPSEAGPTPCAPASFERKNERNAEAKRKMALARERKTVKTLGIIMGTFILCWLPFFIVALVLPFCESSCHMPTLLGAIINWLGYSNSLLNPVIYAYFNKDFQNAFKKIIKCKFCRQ
# Method: The agonistic effect of the compounds on the 5-HT1A receptor was evaluated by testing their inhibitory effect on cAMP production in CHO-K1 cells. 8-OH-DPAT was used as a positive control. The specific procedures were as follows: a) The compounds (test compounds and positive control) were prepared to a stock concentration of 10 mM using DMSO, and Forskolin was prepared to a stock concentration of 10 mM. The initial test concentration of 8-OH-DPAT was 1 µM, diluted 3X. The initial test concentration of the test compounds was 0.1 µM, diluted 3X, and each concentration was repeated twice. 100 nL of the compounds and 10 nL of Forskolin were transferred to the test plate using an Echo, with a final DMSO concentration <1%. b) The stable 5-HT1A cell line was taken out from the incubator to observe the cell status. When the cell density reached 80%-90%, the culture medium was discarded and the cells were washed with 5 mL of DPBS. After discarding DPBS, 2 mL of trypsin was added, and the cells were incubated at 37 °C for 2-5 min. After adding 10 mL of complete culture medium, the cells were collected, which was centrifuged at 1000 rpm for 4 min, and the supernatant was discarded. […]
# human SERT = target: T2, human SERT (Homo sapiens, UniProt P31645); test: 5-HT Transporter Inhibitory Activity Assay (Neurotransmitter transporter uptake assay kit); type: cell-based; conditions: HEK-293 cells expressing human SERT
# T2 construct: expressed in transfected cells; host or cells: HEK-293 (HEK-hSERT cells)
# T2 sequence (P31645 whole entry): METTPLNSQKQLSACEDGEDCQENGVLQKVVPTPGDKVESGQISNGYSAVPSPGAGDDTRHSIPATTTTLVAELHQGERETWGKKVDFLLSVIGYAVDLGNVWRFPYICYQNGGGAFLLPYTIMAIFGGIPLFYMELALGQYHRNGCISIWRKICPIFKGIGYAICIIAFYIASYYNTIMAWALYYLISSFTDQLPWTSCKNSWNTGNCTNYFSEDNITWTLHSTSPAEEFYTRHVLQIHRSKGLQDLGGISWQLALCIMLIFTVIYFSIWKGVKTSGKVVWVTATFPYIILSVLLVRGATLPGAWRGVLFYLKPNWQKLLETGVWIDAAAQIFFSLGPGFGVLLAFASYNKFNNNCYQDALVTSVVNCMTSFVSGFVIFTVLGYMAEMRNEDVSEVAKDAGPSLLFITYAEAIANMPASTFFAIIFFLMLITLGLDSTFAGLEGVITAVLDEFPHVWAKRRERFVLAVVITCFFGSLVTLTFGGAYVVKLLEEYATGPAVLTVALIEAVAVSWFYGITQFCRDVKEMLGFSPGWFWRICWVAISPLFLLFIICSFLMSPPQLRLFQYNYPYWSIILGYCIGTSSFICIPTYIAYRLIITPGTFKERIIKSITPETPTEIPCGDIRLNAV
# Method: The inhibitory effect of the compounds on the 5-HT transporter in HEK-293 cells expressing human SERT was tested using the Neurotransmitter transporter uptake assay kit (Molecular Devices product). The test was performed according to the kit instructions, using citalopram as a positive control. The specific procedure was as follows: a) HEK-hSERT cells were seeded at 20,000 cells/well in a 384-well plate and then incubated overnight at 37°C in an incubator. b) The following day, the compounds (test compounds and positive control) were diluted using DMSO from 20 mM DMSO solution to the working concentration. Each test compound and citalopram were transferred to a 384-well plate using a detection buffer containing 0.1% BSA. The initial test concentration of citalopram was 1 µM, diluted 3X. The initial test concentration of the test compounds was 10 µM, diluted 4X, with each concentration repeated twice. c) The cell culture 384-well plate was taken out from the incubator, the culture medium was aspirated from the wells, and 25 µL of the test compound solution was added per well. The cells were incubated at 37°C for 30 min. After incubation, 25 µL of a dye solution was added to each well and the cells were incubated at 37°C for 30 min. d) the fluorescence values were read on a Flexstation 3 and the data were analyzed using Graphpad Prism.
# [2] = Rat Pharmacokinetic Experiment; type: in vivo, male SD rats; conditions: for bioavailability: rat, iv 1 mg/kg, po 3 mg/kg; for AUC(0-t) / Cmax: rat plasma, oral (po) dose 3 mg/kg
# Method: The compound of Example 2 was used in a pharmacokinetic experiment in rats (non-fasted male SD rats). The compound of the present invention was dissolved in a solvent (0.5% CMC-Na). The intravenous (iv) dose was 1 mg/kg, with an administration volume of 5 ml/kg; the oral (po) dose was 3 mg/kg, with an administration volume of 10 mL/kg body weight. Approximately 0.3 mL of blood samples were collected from the jugular vein of rats at the following time points: 0.083, 0.25, 0.5, 1, 2, 4, 6, 8, and 24 h (n=3 at each time point). The collected blood was stored under ice-cooling conditions. Plasma was rapidly separated by centrifugation, and a precipitant was added. The concentration of the test compound was quantified using LC-MS.
# [3] = Mouse Pharmacokinetic Experiment (plasma and brain); type: in vivo, Male ICR mice; conditions: for bioavailability: mouse, iv 0.3 mg/kg, po 1 mg/kg; for Cmax / AUC(0-t): oral (po) dose 1 mg/kg
# Method: Animal: Male ICR mice. Animals were randomly assigned to the treatment group and fasted for 12 hours before administration.
# Drug to be tested: The compounds were dissolved in solvent (0.5% CMC-Na). The intravenous (iv) dose was 0.3 mg/kg, with an administration volume of 5 ml/kg; the oral (po) dose was 1 mg/kg, with an administration volume of 10 mL/kg body weight.
# Sample Collection and Bioanalysis: After administration, blood was collected from the orbital sinus of mice at 0.083, 0.25, 0.5, 1, 2, 4, 6, 8, and 24 hours (n=3 at each time point) and placed in EP tubes containing heparin sodium. Mice were euthanized immediately via vertebral dislocation after blood collection, and their brains were harvested at the corresponding time points. All samples were collected immediately, rapidly frozen, and stored at -70°C for later use.
# Plasma samples were obtained by whole blood centrifugation. 10 µL of plasma was then mixed with 190 µL of internal standard solution (20 ng/mL metoprazor in acetonitrile containing 0.1% formic acid). After mixing, the mixture was centrifuged at 13000 rpm for 10 min. For each sample, 120 µL of the supernatant was collected, and 0.5-10 µL (depending on the sensitivity of the compound) was then taken for drug analysis using an appropriate liquid chromatography-tandem mass spectrometry (LC-MS/MS) method. Standards for each analyte were used for calibration and identification.
# The brain tissue and extract were homogenized at a brain tissue:extract (50% acetonitrile-water) ratio = 1 (g): 8 (ml) using 5 3mm-magnetic beads in an OMNI Bead Ruptor 24 Elite homogenizer at 3.2 m/s for 2 min. The mixture was centrifuged at 4°C, 3000g for 3 min. 50 µL of supernatant was collected and added with 200 µL of internal standard solution (20 ng/mL dissolved in 80% acetonitrile-water). After mixing well, the mixture was centrifuged at 13000 rpm for 10 min. 120 µL of supernatant was collected for each sample. Then, 0.5-10 µL of the supernatant (depending on the sensitivity of the compound) was taken and analyzed using an appropriate LC-MS/MS method. Standards for each analyte were used for calibration and identification.
# Data Analysis: Drug concentrations below the limit of quantitation (LLOQ) were recorded as zero. Pharmacokinetic data analysis was performed in PK Solver using non-compartmental, bolus intravenous injection, or extravascular administration analysis model. Data points below LLOQ were excluded from the analysis to improve the validity of t1/2 calculation.
SMILES,EC50 [1] [nM],IC50 (human SERT) [nM],also measured
"O=C1CCc2ccc(CCN3CCN(c4cc(F)cc5c4OCC5)CC3)cc2N1 [Example 5, 7-(2-(4-(5-fluoro-2,3-dihydrobenzofuran-7-yl)piperazin-1-yl)ethyl)-3,4-dihydroquinolin-2(1H)-one]",1.5,13,–
"O=C1CCc2ccc(CCN3CCN(c4cc(F)cc5sccc45)CC3)cc2N1 [Reference compound, 7-(2-(4-(6-fluorobenzo[b]thiophene-4-yl)piperazin-1-yl)ethyl)-3,4-dihydroquinolin-2(1H)-one, reference compound]",1,15,"bioavailability ([2]; male, SD, plasma): 43%; AUC(0-t) ([2]; male, SD): 1560 ng·h/mL; Cmax ([2]; male, SD): 280 ng/mL; bioavailability ([3]; male, ICR, plasma): 50%; Cmax ([3]; male, ICR, mouse brain tissue): 254 ng/g; AUC(0-t) ([3]; male, ICR, mouse plasma): 468 ng·h/mL; Cmax ([3]; male, ICR, mouse plasma): 27.5 ng/mL"
"O=c1ccc2ccc(CCN3CCN(c4cc(F)cc5ccoc45)CC3)cc2[nH]1 [Example 3, 7-(2-(4-(5-fluorobenzofuran-7-yl)piperazin-1-yl)ethyl)quinolin-2(1H)-one]",1.3,–,–
"O=C1CCc2ccc(CCN3CCN(c4cc(F)cc5c4CCO5)CC3)cc2N1 [Example 2, 7-(2-(4-(6-fluoro-2,3-dihydrobenzofuran-4-yl)piperazin-1-yl)ethyl)-3,4-dihydroquinolin-2(1H)-one]",–,–,"AUC(0-t) ([2]; in vivo): 5320 ng·h/mL; Cmax ([2]; in vivo): 815 ng/mL; bioavailability ([2]; in vivo): 100%; Cmax ([3]; in vivo, mouse brain tissue): 413 ng/g; AUC(0-t) ([3]; in vivo, mouse plasma): 794 ng·h/mL; Cmax ([3]; in vivo, mouse plasma): 72.8 ng/mL; bioavailability ([3]; in vivo): 77%"
"O=C1CCc2ccc(CCN3CCN(c4cc(F)cc5ccoc45)CC3)cc2N1 [Example 6, 7-(2-(4-(5-fluorobenzofuran-7-yl)piperazin-1-yl)ethyl)-3,4-dihydroquinolin-2(1H)-one]",–,12,–
"O=C1CCc2ccc(CCN3CCN(c4cc(F)cc5occc45)CC3)cc2N1 [Example 1, 7-(2-(4-(6-fluorobenzofuran-4-yl)piperazin-1-yl)ethyl)-3,4-dihydroquinolin-2(1H)-one]",0.5,7.8,"bioavailability ([3]; male, ICR, plasma): 100%; Cmax ([3]; male, ICR, mouse brain tissue): 368 ng/g; AUC(0-t) ([3]; male, ICR, mouse plasma): 1170 ng·h/mL; Cmax ([3]; male, ICR, mouse plasma): 68.4 ng/mL"

# Second part, led by results:
EC50 [1] [nM],IC50 (human SERT) [nM],SMILES,also measured
1,–,"O=C1CCc2ccc(CCN3CCN(c4c(F)ccc5ccsc45)CC3)cc2N1 [Example 14, 7-(2-(4-(6-fluorobenzo[b]thiophene-7-yl)piperazin-1-yl)ethyl)-3,4-dihydroquinolin-2(1H)-one]",–
0.8,–,"O=C1CCc2ccc(CCN3CCN(c4ccc(F)c5sccc45)CC3)cc2N1 [Example 12, 7-(2-(4-(7-fluorobenzo[b]thiophene-4-yl)piperazin-1-yl)ethyl)-3,4-dihydroquinolin-2(1H)-one]",–
0.5,26,"O=C1CCc2ccc(CCN3CCN(c4cc(F)cc5ccsc45)CC3)cc2N1 [Example 15, 7-(2-(4-(5-fluorobenzo[b]thiophene-7-yl)piperazin-1-yl)ethyl)-3,4-dihydroquinolin-2(1H)-one]",–
–,12.4,"[2H]C1([2H])Cc2ccc(CCN3CCN(c4cc(F)cc5c4CCO5)CC3)cc2NC1=O [Example 22, 7-(2-(4-(6-fluoro-2,3-dihydrobenzofuran-4-yl)piperazin-1-yl)ethyl)-3,4-dihydroquinolin-2(1H)-one-3,3-d2]",–
0.7,–,"[2H]C1([2H])CC(=O)Nc2cc(CCN3CCN(c4cc(F)cc5occc45)CC3)ccc21 [Example 41, 7-(2-(4-(6-fluorobenzofuran-4-yl)piperazin-1-yl)ethyl)-3,4-dihydroquinolin-2(1H)-one-4,4-d2]",–
0.5,–,"O=c1ccc2ccc(CCN3CCN(c4cc(F)cc5ccsc45)CC3)cc2[nH]1 [Example 16, 7-(2-(4-(5-fluorobenzo[b]thiophene-7-yl)piperazin-1-yl)ethyl)quinolin-2(1H)-one]",–
–,9,"O=c1ccc2ccc(CCN3CCN(c4cc(F)cc5c4CCO5)CC3)cc2[nH]1 [Example 7, 7-(2-(4-(6-fluoro-2,3-dihydrobenzofuran-4-yl)piperazin-1-yl)ethyl)quinolin-2(1H)-one]",–
–,7.4,"[2H]C1([2H])C(=O)Nc2cc(CCN3CCN(c4cc(F)cc5occc45)CC3)ccc2C1([2H])[2H] [Example 43, 7-(2-(4-(6-fluorobenzofuran-4-yl)piperazin-1-yl)ethyl)-3,4-dihydroquinolin-2(1H)-one-3,3,4,4-d4]",–
–,10.6,"O=C1CCc2ccc(CCN3CCN(c4cc(F)cc5c4OCO5)CC3)cc2N1 [Example 39, 7-(2-(4-(6-fluorobenzo[d][1,3]dioxol-4-yl)piperazin-1-yl)ethyl)-3,4-dihydroquinolin-2(1H)-one]",–
